# In ChEMBL document CHEMBL1201862, “PubChem BioAssay data set” (2004):
#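 Five compound concentrations were applied to cells in 96-well plates for 48 hours; endpoints were derived by simple linear interpolation of the resulting dose-response curve. GI50 marks 50% less growth.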 Activity calls are given as the source filed them. Cut-off read from the data, not from the text of the source: active = GI50 up to about 1.1 µM and inactive = higher.
# How the values were obtained:
# Experiment in all cases: growth of human tumour cells (NCI), 48 h
# KM12 = test system: KM12
# A549 = test system: A549
# HT-29 = test system: HT-29
# PC-3 = test system: PC-3
# EKVX = test system: EKVX
# HOP-62 = test system: HOP-62
# SK-OV-3 = test system: SK-OV-3
# NCI/ADR-RES = test system: NCI/ADR-RES
# CAKI-1 = test system: CAKI-1
# HCT-15 = test system: HCT-15
# Hs-578T = test system: Hs-578T
# Malme-3M = test system: Malme-3M
# IGROV-1 = test system: IGROV-1
# NCI-H522 = test system: NCI-H522
# BT-549 = test system: BT-549
# SK-MEL-28 = test system: SK-MEL-28
# HL-60 = test system: HL-60
# NCI-H226 = test system: NCI-H226
# MDA-MB-435 = test system: MDA-MB-435
# UACC-257 = test system: UACC-257
Compound,GI50 (KM12),GI50 (A549),GI50 (HT-29),GI50 (PC-3),GI50 (EKVX),GI50 (HOP-62),GI50 (SK-OV-3),GI50 (NCI/ADR-RES),GI50 (CAKI-1),GI50 (HCT-15) [µM],GI50 (Hs-578T),GI50 (Malme-3M),GI50 (IGROV-1),GI50 (NCI-H522),GI50 (BT-549),GI50 (SK-MEL-28),GI50 (HL-60),GI50 (NCI-H226),GI50 (MDA-MB-435),GI50 (UACC-257)
CN(CC(=O)O)Cc1c(O)c(Cl)cc(Cl)c1Cl,31.2 µM (inactive),53.7 µM (inactive),33.2 µM (inactive),41.4 µM (inactive),24.2 µM (inactive),29 µM (inactive),> 100 µM (inactive),26.8 µM (inactive),61.8 µM (inactive),21.8,> 100 µM (inactive),27.4 µM (inactive),48.1 µM (inactive),27.8 µM (inactive),75.5 µM (inactive),24.5 µM (inactive),13.9 µM (inactive),22.8 µM (inactive),74.8 µM (inactive),19.8 µM (inactive)
NS(=O)(=O)c1nnc(NC(=O)N(c2ccccc2)c2ccccc2)s1,21.6 µM (inactive),26.3 µM (inactive),27.6 µM (inactive),33 µM (inactive),24.8 µM (inactive),27.2 µM (inactive),59.6 µM (inactive),18.2 µM (inactive),28.6 µM (inactive),22.5,25 µM (inactive),21.2 µM (inactive),17.7 µM (inactive),16.8 µM (inactive),16.1 µM (inactive),39 µM (inactive),16.3 µM (inactive),41.5 µM (inactive),23.4 µM (inactive),36.1 µM (inactive)
COC(=O)C1OC(O[C@H]2CC[C@]3(C)[C@H]4CC=C5[C@@H]6CC(C)(C)CC[C@]6(C(=O)OC)[C@H](O)C[C@@]5(C)[C@]4(C)CC[C@H]3C2(C)C)C(O)C(O)C1O (stereo not given in full),1.67 µM (inactive),4.08 µM (inactive),3.21 µM (inactive),6.64 µM (inactive),7.96 µM (inactive),17 µM (inactive),15 µM (inactive),12.2 µM (inactive),14.2 µM (inactive),10.5,13.8 µM (inactive),12.8 µM (inactive),12.3 µM (inactive),1.57 µM (inactive),15.7 µM (inactive),11.1 µM (inactive),3.37 µM (inactive),15 µM (inactive),13.1 µM (inactive),15.3 µM (inactive)
Oc1c(/N=N/c2ccccc2)c2ccccc2c2ccc3ccccc3c12,> 100 µM (inactive),43.2 µM (inactive),> 100 µM (inactive),73.8 µM (inactive),50.4 µM (inactive),43.6 µM (inactive),> 100 µM (inactive),> 100 µM (inactive),48.6 µM (inactive),> 100,62.8 µM (inactive),48.3 µM (inactive),> 100 µM (inactive),> 100 µM (inactive),73.8 µM (inactive),> 100 µM (inactive),47.3 µM (inactive),> 100 µM (inactive),> 100 µM (inactive),> 100 µM (inactive)
C/C1=C\[C@H](C)C[C@H](C)OC(=O)C[C@H](c2ccc(O)cc2)NC(=O)[C@@H](Cc2c(Br)[nH]c3ccccc23)N(C)C(=O)[C@H](C)NC(=O)[C@@H](C)C1 [JASPAMIDE],0.264 µM (active),0.172 µM (active),0.173 µM (active),0.0667 µM (active),0.275 µM (active),0.329 µM (active),0.185 µM (active),0.367 µM (active),0.092 µM (active),0.834,0.0611 µM (active),0.148 µM (active),0.114 µM (active),0.203 µM (active),0.0292 µM (active),0.124 µM (active),0.132 µM (active),0.245 µM (active),0.063 µM (active),0.11 µM (active)
